The subject of this experiment is α2δ-subunit derived from porcine brain tissue. Kind of experiment: radioligand binding assay using [3H]-gabapentin. As to conditions: [3H]-gabapentin radioligand. The text has this:
The ability of compounds of the present invention to bind to the α2δ-subunit of a calcium channel can be determined using the following binding assay.
The radioligand binding assay using [^3H]-gabapentin and the α2δ-subunit derived from porcine brain tissue was used. See Nicolas S. Gee et al., “The novel anticonvulsant drug, gabapentin (Neurontin), binds to the α2δ subunit of a calcium channel,” J. Biol. Chem. 271 (10):5768–76 (1996). Compounds of the invention bind with nanomolar to micromolar affinity for the α2δ protein.

Take `CCCCC(CC)CCC(CN)C(=O)O` (stereo not shown) [2-aminomethyl-5-ethyl-nonanoic acid]: the “affinity to the α2δ protein” value was 75 nM.

These data come from patent US7179934B2, “Amino acids with affinity for the α2δ-protein” (Warner-Lambert Company LLC, priority 2003, dated 2007).
